Test results as given in paper PMC2962730 (Journal of neurochemistry, 2010).
Substitutions are numbered along the chain they refer to.

Experiments:
[1] = molecular target: T1, hVAChT C391A (Homo sapiens, UniProt Q16572, C391A); experiment: [3H]vesamicol saturation binding; details: pH 7.4
T1 sequence (Q16572 1-532 C391A): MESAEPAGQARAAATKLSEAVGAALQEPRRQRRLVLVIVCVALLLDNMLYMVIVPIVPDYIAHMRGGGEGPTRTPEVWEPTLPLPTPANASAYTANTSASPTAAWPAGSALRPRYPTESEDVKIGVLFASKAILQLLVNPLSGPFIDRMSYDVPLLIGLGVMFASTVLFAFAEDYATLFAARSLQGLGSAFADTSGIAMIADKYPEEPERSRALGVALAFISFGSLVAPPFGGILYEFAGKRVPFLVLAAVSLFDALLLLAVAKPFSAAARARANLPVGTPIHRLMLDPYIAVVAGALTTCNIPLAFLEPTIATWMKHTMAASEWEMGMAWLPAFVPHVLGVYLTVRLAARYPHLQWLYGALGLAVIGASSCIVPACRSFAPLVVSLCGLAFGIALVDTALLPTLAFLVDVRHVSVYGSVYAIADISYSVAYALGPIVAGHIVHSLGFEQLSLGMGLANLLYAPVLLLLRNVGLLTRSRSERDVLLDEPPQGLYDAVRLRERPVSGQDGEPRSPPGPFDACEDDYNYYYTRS

[2] = molecular target: T2, hVAChT W325H (Homo sapiens, UniProt Q16572, W325H); experiment: [3H]vesamicol saturation binding; details: pH 7.4
T2 sequence (Q16572 1-532 W325H): T1 sequence (Q16572 1-532 C391A) with W325H, A391C

[3] = molecular target: T3, hVAChT A330V (Homo sapiens, UniProt Q16572, A330V); experiment: ACh equilibrium binding by competition against [3H]vesamicol
T3 sequence (Q16572 1-532 A330V): T1 sequence (Q16572 1-532 C391A) with A330V, A391C

[4] = molecular target: T4, hVAChT Y60H (Homo sapiens, UniProt Q16572, Y60H); experiment: [3H]ACh transport; type: biochemical
T4 sequence (Q16572 1-532 Y60H): T1 sequence (Q16572 1-532 C391A) with Y60H, A391C

[5] = molecular target: T5, hVAChT W331L (Homo sapiens, UniProt Q16572, W331L); experiment: ACh equilibrium binding by competition against [3H]vesamicol
T5 sequence (Q16572 1-532 W331L): T1 sequence (Q16572 1-532 C391A) with W331L, A391C

[6] = molecular target: T2, hVAChT W325H; experiment: as above

Row | Kd [3] [mM] | decrease in the fraction of high-affinity binding by ACh ([3]; A330V hVAChT vs wild-type) [fold] | FHA, fraction of the ACh sites that have high affinity ([3]; A330V hVAChT, pH 7.4) | Vmax/Bmax, ACh transport normalized to Bmax ([4]; pH 7.4) [min⁻¹] | Km ([4]; read-out: KM, Michaelis-Menten constant for ACh transport, pH 7.4) [µM] | ACh bound more weakly than by wild-type ([5]; W331L hVAChT vs wild-type) [fold] | FHA, fraction of the ACh sites that have high affinity ([5]; W331L hVAChT, pH 7.4, monophasic fit, FHA fixed to 1) | Kd [6] [mM] | FHA, fraction of the ACh sites that have high affinity ([6]; W325H hVAChT, pH 7.4) | Compound | Bmax, maximal specific [3H]vesamicol binding (VAChT expression level) [1] [pmol/mg] | Bmax, maximal specific [3H]vesamicol binding (VAChT expression level) [2] [pmol/mg]
1 |  |  |  |  |  |  |  |  |  | O[C@@H]1CCCC[C@H]1N1CCC(c2ccccc2)CC1 (racemic) [vesamicol, ( )-trans-2-(4-phenylpiperidino)cyclohexanol] | 34 ± 3 | 22 ± 1
2 | 12 ± 5 | 2 | 0.44 ± 0.11 | 3.1 ± 0.6 | 720 ± 530 | 10 | 1.0 | 5.5 ± 0.9 | 0.82± 0.06 | CC(=O)OCC[N+](C)(C)C [ACh, acetylcholine] |  | 
